Assay results from patent publication US20070254895A1, “Crystalline solvate of glucokinase activator” (priority 2006, published 2007).
Where “and” joins values, the source holds several entries; their conditions need not be identical. Equal entries are not always repeated.

Test: Stability samples of IPA solvate analyzed for IPA content and heat of fusion
Assay type: physicochemical
Description: Differential scanning calorimetry was performed using Perkin Elmer DSC-7 and Diamond DSC, using sealed aluminum pan with a hole in the lid. Sample was heated at a rate of 10° C./min.
The stability sample obtained at various time points and conditions were analyzed for the IPA level and heat of fusion (Table 6). These two variables were plotted against each other to see the correlation (FIG. 17).
Sample was stored in a double PE bag with either metal drum or fiber drum as the container.

[1] = 40° C./75% RH/Fiber drum, double PE bag, 1 month

Row | SMILES | IPA (% w/w) (25° C./60% RH/Metal, 3 months) | ΔH (J/g) heat of fusion (25° C./60% RH/Metal, 3 months) [J/g] | IPA (% w/w) (25° C./60% RH/Metal, 6 months) | ΔH (J/g) heat of fusion (25° C./60% RH/Metal, 6 months) [J/g] | IPA (% w/w) (40° C./75% RH/Metal, 1 month) | ΔH (J/g) heat of fusion (40° C./75% RH/Metal, 1 month) | IPA (% w/w) (40° C./75% RH/Metal, 3 months) | ΔH (J/g) heat of fusion (40° C./75% RH/Metal, 3 months) | IPA (% w/w) (40° C./75% RH/Metal, 6 months) | ΔH (J/g) heat of fusion (40° C./75% RH/Metal, 6 months) | IPA (% w/w) (50° C./Metal, 1 month) | ΔH (J/g) heat of fusion (50° C./Metal, 1 month) | further results
1 | CC(C)O.CS(=O)(=O)c1ccc([C@@H](C[C@H]2CCC(=O)C2)C(=O)Nc2cnccn2)cc1Cl [Lot 1] | 12 | 102.665 | 11.9 | 101.346 | 11.1 | 89.35 J/g | 7.3 | 53.712 J/g and 51.302 J/g and 47.200 J/g | 5 | 32.201 J/g and 29.011 J/g and 26.128 J/g | 12 | 102.033 J/g and 99.554 J/g | IPA (% w/w) (5° C./Fiber, 6 months): 12.2 % w/w; ΔH (J/g) heat of fusion (5° C./Fiber, 6 months): 104.917 J/g; IPA (% w/w) (25° C./60% RH/Fiber, 3 months): 12 % w/w; ΔH (J/g) heat of fusion (25° C./60% RH/Fiber, 3 months): 99.861 J/g; IPA (% w/w) (25° C./60% RH/Fiber, 6 months): 12 % w/w; ΔH (J/g) heat of fusion (25° C./60% RH/Fiber, 6 months): 98.112 J/g; IPA (% w/w) (30° C./60% RH/Fiber, 10 months): 11.2 % w/w; ΔH (J/g) heat of fusion (30° C./60% RH/Fiber, 10 months): 87.929 J/g; IPA (% w/w) (30° C./60% RH/Metal, 10 months): 11.5 % w/w; ΔH (J/g) heat of fusion (30° C./60% RH/Metal, 10 months): 99.538 J/g; IPA (% w/w) [1]: 8.9 % w/w; ΔH (J/g) heat of fusion [1]: 65.084 J/g; IPA (% w/w) (40° C./75% RH/Fiber, 3 months): 4.4 % w/w; ΔH (J/g) heat of fusion (40° C./75% RH/Fiber, 3 months): 28.733 J/g and 29.404 J/g and 26.416 J/g and 24.713 J/g; IPA (% w/w) (40° C./75% RH/Fiber, 6 months): 4 % w/w; ΔH (J/g) heat of fusion (40° C./75% RH/Fiber, 6 months): 26.529 J/g; IPA (% w/w) (50° C./Fiber, 1 month): 11.8 % w/w; ΔH (J/g) heat of fusion (50° C./Fiber, 1 month): 105.445 J/g
2 | CC(C)O.CS(=O)(=O)c1ccc([C@@H](C[C@H]2CCC(=O)C2)C(=O)Nc2cnccn2)cc1Cl [Lot 3] | 12 | 104.847 | 12 | 102.406 | 11.6 | 105.006 J/g and 102.972 J/g | 11.3 | 103.326 J/g and 103.52 J/g | 8.4 | 65.867 J/g and 67.851 J/g and 61.796 J/g | 12 | 100.639 J/g | IPA (% w/w) (5° C./Metal, 3 months): 12.1 % w/w; ΔH (J/g) heat of fusion (5° C./Metal, 3 months): 107.801 J/g; IPA (% w/w) (5° C./Metal, 6 months): 12.1 % w/w; ΔH (J/g) heat of fusion (5° C./Metal, 6 months): 106.157 J/g
